Experimental data reported in patent publication US20170303574A1, “COMPOUNDS, COMPOSITIONS, AND METHODS FOR MODULATING SWEET TASTE” (Chromocell Corporation, priority 2014, published 2017).
Marks after values point to notes of the source that are not given here.

Legend:
Format in all cases: in vivo, humans
[1] = system: perception of sweet taste of high fructose cornsyrup (HFCS); experiment: 2AFC assessment of increase in perceived sweetness of HFCS solution; settings: for Compound concentration with positive 2AFC results: in 5brix HFCS test sample; for Fold increase in perceived sweetness: positive control concentration surpassed divided by test sample concentration (5brix HFCS), approximate; for Sweetener Concentration of positive control surpassed by test sample: test sample 5brix HFCS plus compound, 2AFC sip and spit, panelists n≧15
Experimental: Effect of test compounds on the perception of sweet taste of high fructose cornsyrup (HFCS) two-alternative forced choice method (2AFC). The effect of the test compounds on the perception of the sweet taste of an aqueous solution of sweetener in humans was evaluated using a two-alternative forced choice “sip and spit” method (2AFC). The aqueous sweetener solutions were prepared by adding sucrose equivalent (SE) quantities of high fructose corn syrup (HFCS) (by weight), to water to achieve the desired concentration. The aqueous solutions ranged in pH from pH 2.5-pH 7. Compounds of the invention were first prepared as a 500-fold concentrated stock solution in 100% ethanol. These concentrated stocks were then added to the aqueous sweetener solutions to result in a final ethanol concentration of 0.2%. The control (positive and negative) samples were also normalized to 0.2% ethanol. This level of ethanol was not seen to contribute any perceived sweetness. The 2AFC test used for compound evaluation was a double blinded and randomized test where taste panelists (n≧15) evaluate a pair of sweetener solutions at a time—one sample contains aqueous sweetener solution plus compound (i.e. test) while the other contains aqueous sweetener solution at higher concentration without compound (i.e. positive control). Each test sample was compared against a positive control. For example, if the test sample contained 1× sweetener concentration with compound (e.g. 5brix HFCS with compound), the positive control sample contained a 1.1× sweetener concentration (e.g. 5.5brix HFCS without compound). […] Panelists were instructed not to eat or drink (except water) for at least 1 hour before the test. During the test, panelists were instructed to sip each sample, swirl it around their mouth and then expectorate. After tasting each sample in the pair, panelists were instructed to record the sample that is “sweeter” in taste. Panelists cleansed their palates by rinsing with water, eating a cracker and waiting for an interval of about 5 minutes. All samples were tasted at ambient temperatures. Data were analyzed using binomial probabilities. Approximate levels of sweetness enhancement in column 5 of Table 2 were calculated as follows: Approximate levels of sweetness enhancement=Sweetener concentration of positive control surpassed by the test sample, divided by sweetener concentration for compound-containing sample (e.g.1.3×=6.5brix HFCS/5brix HFCS).

[2] = system: perception of the sweet taste in a flavored aqueous environment; experiment: Descriptive analysis (DA) panel: sweetness enhancement in HFCS sweetened lemon lime matrix; settings: for Fold enhancement of sweetness perception as compared to control sample: vs negative control; for Perceived sweetness (spider plot, vs control sweetener solution): lemon-lime matrix sweetened with HFCS, pH 7
Experimental: (§1) The effect of the test compound on the perception of the sweet taste in a flavored aqueous environment, in the presence of carbohydrate sweeteners, was evaluated using a descriptive analysis methodology with a group of trained panelists, as follows.
The panel used in this example was trained to reference sweet attributes in an absolute manner, such that a particular concentration of sweetener is always measured by the panelists at the same point using a 15 cm line scale where each cm represents a 1% increase in sucrose to cover the range of 0% to 15% sucrose. For the rest of the attributes, the panel was trained using a hybrid approach between descriptive analysis methods well-known to those skilled in the art.
The trained panel was then used for a descriptive analysis assessment for Compound 2 and Compound 5 in flavored lemon lime matrix. Compound 2 was assessed at a dose of 50 ppm and Compound 5 was assessed at a dose of 20 ppm for sweetness enhancement in high fructose corn syrup (HFCS) sweetened lemon lime matrix.
The flavored sweetener solutions were prepared by adding sucrose equivalent quantities of HFCS (by weight), to lemon lime matrix to achieve the desired concentration. Compound was first prepared as a 500-fold concentrated stock solution in 100% ethanol. The concentrated stocks were then added to the flavored sweetener solutions to result in a final ethanol concentration of 0.2%. The control (positive and negative) samples were also normalized to 0.2% ethanol. This level of ethanol was not seen to contribute any perceived sweetness
(§2) Both control (flavored sweetener solutions without compound) and variant (flavored sweetener solutions with compound) samples were blinded and randomized. Samples were presented in monadic order and panelists were instructed to sip the sample, swirl it in their mouths and expectorate. A total of 7 attributes including sweet, bitter, sour, licorice and thickness were assessed for each sample. For the sweet attribute, panelists made an absolute scoring on a 15 cm line scale where each cm represents a 1% increase in sucrose to cover the range of 0% to 15% sucrose. After each sample assessment, panelists performed a standard palate cleansing protocol, and observed an inter-sample interval time (ISI). All samples were evaluated at ambient temperatures.
Data was collected and exported electronically utilizing FIZZ sensory software. Data analysis was conducted using SENPAQ version 5.0 software that uses tools such as ANOVA, Fisher's LSD, correlation to determine panel performance as well as significant differences between samples and attributes.
The letter “a” indicates significant differences among the samples at 95% confidence level. Fold enhancement (increase in perceived sweetness) was calculated by dividing the DA panel average intensity score observed for a variant sample by that observed for the negative control sample.

[3] = system: perception of non-sweet taste attributes (such as bitterness); experiment: Descriptive analysis (DA) panel: non-sweet taste attributes in lemon lime matrix (spider plots); settings: lemon-lime matrix sweetened with HFCS, pH 7
Experimental: as §1, with “non-sweet” for “the sweet”, “taste attributes (such as bitterness)” for “taste”, “follows. This occurred as part of DA assessment described previously in Example 3.” for “follows.”
The trained panel was then used for a descriptive analysis assessment for Compound 2 and Compound 5 in lemon lime flavored matrix, sweetened with high fructose corn syrup (HFCS), at a test dose of 50 ppm and 20 ppm, respectively.
as §2, with “All control and variant samples were prepared as described in Example 3. Both” for “Both”, “sample.” for “sample. For the sweet attribute, panelists made an absolute scoring on a 15 cm line scale where each cm represents a 1% increase in sucrose to cover the range of 0% to 15% sucrose.”
Data was collected and exported electronically utilizing FIZZ sensory software. […]

[4] = Compound 5 @ 20 ppm in 6.67brix HFCS lemon lime matrix
[5] = Compound 2 @ 50 ppm in 7.7brix HFCS lemon lime matrix

| SMILES | Compound concentration with positive 2AFC results [1] | Fold increase in perceived sweetness [1] | Sweetener Concentration of positive control surpassed by test sample [1] | Average Sweetness Intensity Score w/ ANOVA (on 15 cm scale) [2, 4] | Fold enhancement of sweetness perception as compared to control sample [2, 4] | Perceived sweetness (spider plot, vs control sweetener solution) [2] | Other attributes including astringent, licorice and bitter (spider plot, vs control) [3] | Average Sweetness Intensity Score w/ ANOVA (on 15 cm scale) [2, 5] | Fold enhancement of sweetness perception as compared to control sample [2, 5] |
| --- | --- | --- | --- | --- | --- | --- | --- | --- | --- |
| COc1ccc(C2CCc3ccc(O)c(C)c3O2)cc1O (racemic) [Compound 1, 2-(3-hydroxy-4-methoxyphenyl)-8-methylchroman-7-ol] | 35 ppm | >1.2X | 6brix HFCS |  |  |  |  |  |  |
| COc1ccc(C2CCc3cc(C)c(O)cc3O2)cc1O (racemic) [Compound 4, 2-(3-hydroxy-4-methoxyphenyl)-6-methylchroman-7-ol] | 20 ppm | >1.3X | 6.5brix HFCS |  |  |  |  |  |  |
| COc1ccc(C2CCc3cc(C)c(O)cc3O2)cc1O (single isomer, unassigned; (-)) [Compound 5, (−)-2-(3-hydroxy-4-methoxyphenyl)-6-methylchroman-7-ol] | 20 ppm | >1.5X | 7.5brix HFCS | 9.7^a | 1.47X | significant increase in perceived sweetness | observed to be significant |  |  |
| COc1ccc([C@@H]2CCc3ccc(O)c(C)c3O2)cc1O [Compound 2, (S)-2-(3-hydroxy-4-methoxyphenyl)-8-methylchroman-7-ol] | 50 ppm | >1.3X | 6.5brix HFCS |  |  | significant increase in perceived sweetness | observed to be significant | 10.3^a | 1.43X |
